Laboratory results: US11840541B2 (priority 2014, dated 2023)
Entries after “also recorded” stand apart in the source; their conditions may differ. Where two headings read alike, the source gives them in different places.

Assays:
[1] = target: T1, Human KOR (Homo sapiens, UniProt P41145); assay: cell-based; conditions: for Emax: read-out: Emax in parentheses, Human KOR
T1 construct: expressed in transfected cells; host or cells: HEK-293T

[2] = target: T2, Human MOR (Homo sapiens, UniProt P35372); assay: cell-based
T2 construct: expressed in transfected cells; host or cells: HEK-293T

[3] = target: T3, Human DOR (Homo sapiens, UniProt P41143); assay: cell-based
T3 construct: expressed in transfected cells; host or cells: HEK-293T

[4] = target: T1, Human KOR; assay: BRET functional assay, inhibition of reference agonist U-50,488 (antagonist mode), human KOR; assay type: cell-based
[5] = EC50 at indicated opioid receptor, Human MOR
[6] = read-out: EC50 at indicated opioid receptor, Human DOR
[7] = EC50 at indicated opioid receptor, Human KOR
[8] = EC50 at indicated opioid receptor, Human DOR
[9] = EC50, induced BRET signal, Human KOR
[10] = EC50, induced BRET signal, Human MOR
[11] = EC50, induced BRET signal, Human DOR

T1 sequence (P41145 whole entry): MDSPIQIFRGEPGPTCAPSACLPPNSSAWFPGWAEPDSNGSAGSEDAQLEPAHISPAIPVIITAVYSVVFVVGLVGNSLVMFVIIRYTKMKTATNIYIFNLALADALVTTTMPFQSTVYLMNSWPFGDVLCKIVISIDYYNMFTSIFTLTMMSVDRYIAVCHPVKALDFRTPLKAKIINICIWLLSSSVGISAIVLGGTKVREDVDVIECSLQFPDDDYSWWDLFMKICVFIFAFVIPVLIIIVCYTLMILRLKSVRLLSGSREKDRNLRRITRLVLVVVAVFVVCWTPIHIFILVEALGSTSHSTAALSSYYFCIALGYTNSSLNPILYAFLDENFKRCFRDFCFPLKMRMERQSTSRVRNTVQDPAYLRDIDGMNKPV
T2 sequence (P35372 whole entry): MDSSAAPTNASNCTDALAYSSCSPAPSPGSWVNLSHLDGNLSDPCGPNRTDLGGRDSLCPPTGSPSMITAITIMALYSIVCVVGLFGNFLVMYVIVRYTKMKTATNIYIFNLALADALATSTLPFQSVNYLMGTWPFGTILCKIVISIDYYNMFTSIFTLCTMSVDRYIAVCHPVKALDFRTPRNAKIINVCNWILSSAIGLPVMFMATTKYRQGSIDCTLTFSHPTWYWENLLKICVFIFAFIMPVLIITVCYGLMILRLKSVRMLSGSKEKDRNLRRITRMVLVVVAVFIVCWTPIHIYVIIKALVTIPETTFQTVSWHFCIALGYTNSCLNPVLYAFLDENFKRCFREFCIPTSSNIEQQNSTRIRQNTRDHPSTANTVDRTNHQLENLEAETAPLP
T3 sequence (P41143 whole entry): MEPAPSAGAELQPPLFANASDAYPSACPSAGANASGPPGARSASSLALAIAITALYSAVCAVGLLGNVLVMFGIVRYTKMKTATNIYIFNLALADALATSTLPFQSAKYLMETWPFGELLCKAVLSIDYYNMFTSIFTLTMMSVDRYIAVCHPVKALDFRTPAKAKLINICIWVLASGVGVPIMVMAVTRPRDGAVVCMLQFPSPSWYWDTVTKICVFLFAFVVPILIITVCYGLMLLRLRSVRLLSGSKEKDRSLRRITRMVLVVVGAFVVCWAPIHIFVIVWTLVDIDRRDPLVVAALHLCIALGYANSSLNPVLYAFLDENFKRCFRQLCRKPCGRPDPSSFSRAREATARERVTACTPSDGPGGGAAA

Row | Compound | EC50 [2, 5] [µM] | EC50 [1, 7] [µM] | EC50 [3, 8] [µM] | further results
1 | CCC1CC2CC3c4oc5ccc(OC)cc5c4CCN(C2)C13 (single isomer, unassigned) [Compound 34c] | > 10 | – | – | EC50 ([1]; read-out: EC50 at indicated opioid receptor, Human KOR): > 10 µM; EC50 [3, 6]: > 100 µM
2 | CCC1CC2CC3c4oc5ccc(OC)cc5c4CCN(C2)C13 (single isomer, unassigned) [Compound 34d] | > 100 | > 10 | > 100 | –
3 | CCC1CC2(C)CC3c4oc5ccc(O)cc5c4CCN(C2)C13 (single isomer, unassigned) [Compound 60b] | – | – | – | EC50 ([1]; read-out: EC50, Human KOR): < 10 µM; EC50 ([2]; read-out: EC50, Human MOR): < 10 µM; EC50 ([3]; EC50, Human DOR): < 10 µM
4 | CCC1CC2(C)CC3c4oc5ccc(O)cc5c4CCN(C2)C13 (single isomer, unassigned) [Compound 60c] | – | – | – | EC50 ([1]; EC50, Human KOR): < 10 µM; EC50 ([2]; EC50, Human MOR): < 10 µM; EC50 ([3]; EC50, Human DOR): > 10 µM
5 | CCC1CC2CC3c4oc5ccc(O)cc5c4C[C@H](C)N(C2)C13 (single isomer, unassigned) [α-exo-52e] | – | – | – | Emax [1]: 88%; EC50 (μM) with Emax in parentheses, Human MOR [2]: 0.40 μM ± 0.056 (98%); Emax ([3]; read-out: Emax in parentheses, Human DOR): 98%
6 | CCC1CC2CC3c4oc5ccc(O)cc5c4C[C@H](C)N(C2)C13 (single isomer, unassigned) [α-exo-52f] | – | – | > 100 | EC50 with Emax in parentheses [1]: 0.14 μM ± 0.006 (72%); EC50 (μM) with Emax in parentheses, Human MOR [2]: 0.48 μM ± 0.20 (50%)
7 | CCC1CC2CC3c4oc5ccccc5c4CCN(C2)C13 (stereo not drawn) [Compound 34a, 7-ethyl-6,6a,7,8,9,10,12,13-octahydro-6,9-methanobenzofuro[2,3-d] pyrido[1,2-a]azepine] | > 100 | > 10 | > 100 | –
8 | CCCC1CC2CC3c4oc5ccc(OC)cc5c4CCN(C2)C13 (stereo not drawn) [Compound 34e] | > 10 | > 100 | > 100 | –
9 | CCCC1CC2CC3c4oc5ccc(OC)cc5c4CCN(C2)C13 (stereo not drawn) [Compound 34f] | > 100 | > 10 | – | EC50 [3, 6]: > 100 µM
10 | COc1ccc2oc3c(c2c1)CCN1CC2CCC1C3C2 (stereo not drawn) [Compound 34h] | > 100 | > 10 | > 100 | –
11 | CCCCC1CC2CC3c4oc5ccc(OC)cc5c4CCN(C2)C13 (stereo not drawn) [Compound 34i] | > 10 | > 10 | > 100 | –
12 | CCC1CC2CC3c4oc5ccc(F)cc5c4CCN(C2)C13 (stereo not drawn) [Compound 34j] | > 10 | > 10 | > 100 | –
13 | CCC1CC2CC3c4oc5cc(OC)ccc5c4CCN(C2)C13 (stereo not drawn) [Compound 34k] | < 10 | < 10 | > 10 | –
14 | CCC1CC2CC3c4oc5cc(F)c(OC)cc5c4CCN(C2)C13 (stereo not drawn) [Compound 34l] | > 100 | > 10 | > 100 | –
15 | COCC1CC2CC3c4oc5ccc(OC)cc5c4CCN(C2)C13 (stereo not drawn) [Compound 34m] | > 10 | > 10 | > 10 | –
16 | COc1ccc2oc3c(c2c1)CCN1CC2CC(c4ccccc4)C1C3C2 (stereo not drawn) [Compound 34n] | > 100 | > 10 | > 100 | –
17 | CCC1CC2CC3c4sc5ccccc5c4CCN(C2)C13 (stereo not drawn) [Compound 34q, 7-ethyl-6,6a,7,8,9,10,12,13-octahydro-6,9-methanobenzo[4,5] thieno[2,3-d]pyrido[1,2-a]azepine] | > 100 | > 10 | > 100 | –
18 | CCC1CC2CC3c4sc5ccc(OC)cc5c4CCN(C2)C13 (stereo not drawn) [Compound 34r] | > 10 | > 10 | > 100 | –
19 | CCC1CC2CC3c4oc5ccc(O)cc5c4CCN(C2)C13 (stereo not drawn) [Compound 35a] | < 10 | < 10 | < 10 | agonist activity at KOR (in words) [1]: full agonist; EC50 [1, 9]: 0.66 ± 0.13 µM; agonist activity at MOR (in words) [2]: full agonist; EC50 [2, 10]: 0.98 ± 0.14 µM; agonist activity at DOR (in words) [3]: full agonist; EC50 [3, 11]: 4.5 ± 1.2 µM
20 | CCCC1CC2CC3c4oc5ccc(O)cc5c4CCN(C2)C13 (stereo not drawn) [Compound 35c] | < 10 | < 10 | < 10 | –
21 | CCCC1CC2CC3c4oc5ccc(O)cc5c4CCN(C2)C13 (stereo not drawn) [Compound 35d] | – | – | – | agonist activity at KOR (in words) [1]: agonist activity; EC50 [1, 9]: 0.297 ± 0.03 µM; agonist activity at MOR (in words) [2]: agonist activity; EC50 [2, 10]: 0.922 ± 0.282 µM; agonist activity at DOR (in words) [3]: agonist activity; EC50 [3, 11]: 5.7 ± 5.1 µM
22 | Oc1ccc2oc3c(c2c1)CCN1CC2CCC1C3C2 (stereo not drawn) [Compound 35e] | < 10 | < 10 | > 100 | –
23 | CCC1CC2CC3c4oc5cc(O)ccc5c4CCN(C2)C13 (stereo not drawn) [Compound 35f] | < 10 | < 10 | > 10 | –

Row | Compound | EC50 [2, 5] [µM] | EC50 [1, 7] [µM] | EC50 [3, 8] [µM] | further results
24 | Oc1ccc2oc3c(c2c1)CCN1CC2CC(Cc4ccccc4)C1C3C2 (stereo not drawn) [Compound 35g] | < 10 | < 10 | < 10 | –
25 | CCCCC1CC2CC3c4oc5ccc(O)cc5c4CCN(C2)C13 (stereo not drawn) [Compound 35h] | < 10 | < 10 | < 10 | –
26 | COCC1CC2CC3c4oc5ccc(O)cc5c4CCN(C2)C13 (stereo not drawn) [Compound 35i] | < 10 | < 10 | < 10 | –
27 | OCC1CC2CC3c4oc5ccc(O)cc5c4CCN(C2)C13 (stereo not drawn) [Compound 35j] | < 10 | < 10 | < 10 | –
28 | CCC1CC2CC3c4oc5cc(F)c(O)cc5c4CCN(C2)C13 (stereo not drawn) [Compound 35k] | < 10 | < 10 | < 10 | –
29 | Oc1ccc2oc3c(c2c1)CCN1CC2CC(c4ccccc4)C1C3C2 (stereo not drawn) [Compound 35l] | > 10 | > 10 | > 10 | –
30 | Oc1ccc2oc3c(c2c1)CCN1CC2CC(c4ccccc4)C1C3C2 (stereo not drawn) [Compound 35m] | < 10 | > 100 | < 10 | –
31 | CCC1CC2CC3c4sc5ccc(O)cc5c4CCN(C2)C13 (stereo not drawn) [Compound 35n] | < 10 | < 10 | > 100 | –
32 | CCC1CC2CC3c4oc5cccc(OC)c5c4CCN(C2)C13 (stereo not drawn) [Compound 51b] | – | – | – | EC50 ([1]; EC50, Human KOR): > 10 µM; EC50 ([2]; EC50, Human MOR): > 10 µM; EC50 ([3]; EC50, Human DOR): > 100 µM
33 | CCC1CC2CC3c4oc5cc(C)c(OC)cc5c4CCN(C2)C13 (stereo not drawn) [Compound 51c] | – | – | – | EC50 ([1]; EC50, Human KOR): > 10 µM; EC50 ([2]; EC50, Human MOR): > 10 µM; EC50 ([3]; EC50, Human DOR): > 10 µM
34 | CCC1CC2CC3c4oc5c(O)cccc5c4CCN(C2)C13 (stereo not drawn) [Compound 52a] | > 100 | > 10 | > 100 | –
35 | CCC1CC2CC3c4oc5cccc(O)c5c4CCN(C2)C13 (stereo not drawn) [Compound 52b] | > 10 | > 100 | > 100 | –
36 | CCC1CC2CC3c4oc5cc(C)c(O)cc5c4CCN(C2)C13 (stereo not drawn) [Compound 52c] | > 10 | > 10 | > 10 | –
37 | COCC1CC2CC3c4oc5ccc(OC)cc5c4CCN(C2)C13 (stereo not drawn) [Compound 59g] | – | – | – | EC50 ([1]; EC50, Human KOR): < 10 µM; EC50 ([2]; EC50, Human MOR): > 100 µM; EC50 ([3]; EC50, Human DOR): > 100 µM
38 | CC1C2CCC3C(C2)c2oc4ccc(O)cc4c2CCN13 (stereo not drawn) [Compound 60d] | – | – | – | EC50 ([1]; EC50, Human KOR): < 10 µM; EC50 ([2]; EC50, Human MOR): < 10 µM; EC50 ([3]; EC50, Human DOR): > 100 µM
39 | OCC1CC2CC3c4oc5ccc(O)cc5c4CCN(C2)C13 (stereo not drawn) [Compound 60g] | – | – | – | EC50 ([1]; EC50, Human KOR): < 10 µM; EC50 ([2]; EC50, Human MOR): > 10 µM; EC50 ([3]; EC50, Human DOR): > 10 µM
40 | Oc1ccc2oc3c(c2c1)CCN1CC2CC(Cc4ccccc4)C1C3C2 (stereo not drawn) [Compound 60h] | – | – | – | EC50 ([1]; EC50, Human KOR): > 10 µM; EC50 ([2]; EC50, Human MOR): > 10 µM; EC50 ([3]; EC50, Human DOR): > 10 µM
41 | CCC1CC2CC3c4oc5ccc(O)cc5c4C[C@@H](C)N(C2)C13 (stereo partly drawn) [α-endo-52e] | – | – | > 100 | Emax [1]: 26%; Emax ([2]; read-out: Emax in parentheses, Human MOR): 24%
42 | CCC1(CC)CC2CC3c4oc5ccc(O)cc5c4C[C@@H](C)N(C2)C31 (stereo partly drawn) [α-endo-52f] | > 100 | – | > 100 | agonist activity at KOR (in words) [1]: selective KOR agonist; EC50 [1, 9]: 0.12 ± 0.014 µM; Emax [1]: 47%; agonist activity at MOR (in words) [2]: not active as agonist; agonist activity at DOR (in words) [3]: not active as agonist
43 | CCC1CC2CC3c4oc5ccc(O)cc5c4C[C@@H](CC)N(C2)C13 (stereo partly drawn) [α-endo-52g] | > 100 | > 100 | > 100 | agonist activity at KOR (in words) [1]: not active as agonist; also recorded: no agonist activity; agonist activity at MOR (in words) [2]: not active as agonist; agonist activity at DOR (in words) [3]: not active as agonist; IC50 [4]: 8.2 ± 0.5 µM; antagonist activity at KOR (in words) [4]: KOR antagonist
44 | CC[C@@H]1Cc2c(oc3ccc(O)cc23)C2CC3CCC2N1C3 (stereo partly drawn) [α-endo-60f] | – | – | – | EC50 ([1]; EC50, Human KOR): > 10 µM; EC50 ([2]; EC50, Human MOR): > 100 µM; EC50 ([3]; EC50, Human DOR): > 100 µM
45 | CC[C@H]1Cc2c(oc3ccc(O)cc23)C2CC3CCC2N1C3 (stereo partly drawn) [α-exo-60f] | – | – | – | EC50 ([1]; EC50, Human KOR): < 10 µM; EC50 ([2]; EC50, Human MOR): < 10 µM; EC50 ([3]; EC50, Human DOR): < 10 µM
